Columns and labels:
[1] = Toxicity in po dosed Rattus norvegicus albino (rat); assay type: organism-based; details: in vivo
Mus musculus [2] = species on record: Mus musculus; assay: Anticonvulsant activity in Mus musculus (mouse) assessed as protection against metrazole-induced seizures; assay type: functional
Mus musculus [3] = species on record: Mus musculus; assay: Anticonvulsant activity in acute seizure Mus musculus (mouse) model assessed as protection against maximal electroshock-induced seizures; assay type: functional
Mus musculus [4] = species on record: Mus musculus; assay: Anticonvulsant activity in Mus musculus (mouse) assessed as protection against maximal electroshock-induced seizures; assay type: functional
Mus musculus [5] = assay: Anticonvulsant activity in Mus musculus (mouse) assessed protection against subcutaneous pentylenetetrazole-induced seizures; assay type: functional
Mus musculus [6] = species on record: Mus musculus; assay: Anticonvulsant activity against Mus musculus DBA/2 (mouse) assessed as protection against sound-induced seizure; assay type: functional; details: read-out: MED
Mus musculus [7] = assay: Anticonvulsant activity in Mus musculus (mouse) assessed as protection against maximal electroshock-induced seizures compound co-administered with losartan 50 mg/kg, ip; assay type: functional; details: route intraperitoneal

Question: With `COc1cccc(-c2nc(-c3ccccc3)c(-c3ccccc3)[nH]2)c1` as the compound, how does the MTD [1] read?
Answer: ≤ 5000 mg/kg

Question: For `Cc1ncc(C(=O)Oc2ccccc2)n1C(C)c1ccccc1.O=[N+]([O-])O` (stereo not given), which ED50 (Mus musculus [2]) is on record?
Answer: 68 mg/kg

Question: Which ED50 (Mus musculus [3]) does the source give for `CCCOC(=O)NC1=NCC(c2ccccc2F)N1C` (stereo not given) here?
Answer: 23 mg/kg

Question: For `CC(C)OC(=O)NC1=NCC(c2ccccc2F)N1C` (stereo not given), which ED50 (Mus musculus [3]) is on record?
Answer: 23 mg/kg

Question: With `Clc1ccc(-c2nc(Cn3ccnc3)cs2)cc1` as the compound, how does the Activity (Mus musculus [4]) read?
Answer: 33%

Question: And the Activity (Mus musculus [5])?
Answer: 33%

Question: With `COC(=O)c1cnc(C)n1C(C)c1ccccc1.O=[N+]([O-])O` (stereo not given) as the compound, how does the ED50 (Mus musculus [2]) read?
Answer: 68 mg/kg

Question: With `O=[N+]([O-])c1cc2nc(O)c(O)nc2nc1-n1ccnc1` as the compound, how does the minimal effective dose (Mus musculus [6]) read?
Answer: 10 mg/kg

Question: Which ED50 (Mus musculus [4]; Mus musculus) does the source give for `CCCC(CCC)C(=O)O` [VALPROIC ACID] here?
Answer: 250 mg/kg

Question: What about the ED50 (Mus musculus [7]) of the same compound?
Answer: 195 mg/kg

— ChEMBL document CHEMBL3045591, “Imidazole as an anti-epileptic: an overview” (Med Chem Res, 2012)
